One assay concerns A549. Briefly: Antitumor activity against human A549 cells xenografted in NU/J nude mouse assessed as inhibition of tumor volume at 10 mg/kg, ip administered daily for 10 weeks measured every 7 days during compound dosing relative to control. In kind it is functional.
Assay [1] is described as follows: Inhibition of human LDH5.
Another assay concerns A2780S. Briefly: Cytotoxicity against human A2780S cells. In kind it is functional, cell-based.
The subject of another assay is A2780cisR. Nature of the assay: Cytotoxicity against human A2780cisR cells. The class given is functional, cell-based.

The structures appear in SMILES notation.

As to `O=C(Oc1cccc(F)c1OC(=O)c1cccc(O)c1)c1cccc(O)c1`, the inhibition in vivo at 10 mg/kg in the assay on A549 was above 70%.
`COC(=O)c1cc2c(C(F)(F)F)cc(-c3ccccc3)cc2n1O`: in assay [1], the Ki came to 5100 nM.
Turning to `CC(=O)N[C@H](C(=O)N[C@H]1C(O)O[C@H](CO)[C@@H](O)[C@@H]1O)C(C)(C)SN=O` (some centres undefined), the IC50 is 4.2 nM with A2780S and 380 nM with A2780cisR.

For the origin of these results see ChEMBL document CHEMBL3992488, “Anticancer agents interacting with membrane glucose transporters” (Medchemcomm, 2016).
